Results published in PubChem BioAssay AID720587 (Broad Institute, 2013).
Where “and” joins values, the source holds several entries; their conditions need not be identical. Equal values may be shown once.

The molecules below were run on A673 Ewing sarcoma viability, CellTiter-Glo ATP luminescence, 72 h (assay: A673 Ewing sarcoma viability loss – cell-based, CellTiter-Glo luminescence, cherry-pick retest, confirmation (AID 720587)).

Compound | AC35
COc1ccc(S(=O)(=O)N2CCCc3nc(-c4ccc(F)cc4)ccc32)cc1 | 5.35 µM
C[C@H]1CN([C@@H](C)CO)S(=O)(=O)c2ccc(C#CC(C)(C)O)cc2O[C@@H]1CN(C)Cc1ccc(-c2ccccc2)cc1 | 0.656 µM
O=C(Nc1ccc(Br)cc1)c1ccc(F)c(S(=O)(=O)N2CCN(c3ccccn3)CC2)c1 | 9.42 µM
CN=c1scc(-c2ccccc2F)n1/N=C/c1ccc[nH]1 | 10.1 µM
COC(=O)C[C@@H]1CC[C@@H]2[C@H](COc3ccc(NC(=O)c4cc(C)on4)cc3C(=O)N2C)O1 | 14.5 µM
COc1cc(/C=N\Nc2nc(-c3ccc(C)cc3)c(NC(C)=O)s2)ccc1O | 14.4 µM
C=C1C(=O)[C@@]23[C@H](O)C[C@@H]4C(C)(C)CC[C@H](O)[C@@]4(C)[C@@H]2CC[C@@H]1[C@H]3O | 3.15 µM
CC(=O)Oc1ccc(-c2ccc(C(=O)Nc3cccc(S(=O)(=O)N4CCOCC4)c3)cc2)cc1 | 15.3 µM
OCC1OC(n2cnc3c(NCc4ccco4)ncnc32)C(O)C1O (stereo not given) | 4.04 µM
CCCN1C(=O)/C(=C/c2nc3ccccc3c(=O)[nH]2)c2ccccc21 | 22 µM
O=C(NC1CCCC1)N1CCCCN2[C@@H](CO)[C@@H](c3ccc(/C=C/c4ccccc4)cc3)[C@@H]2C1 | 7.8 µM
Cc1ccc(S(=O)(=O)Nc2ccc3c(c2)C(=O)N([C@H](C)CO)C[C@@H](C)[C@@H](CN(C)Cc2ccc(C(=O)Nc4ccccc4N)cc2)O3)cc1 | 11.9 µM
Cc1cccc(/C=C(\c2nc3ccccc3[nH]2)S(=O)(=O)c2ccccc2)c1 | 5.92 µM
C[C@@H]1CN([C@H](C)CO)C(=O)c2cc(N(C)C)ccc2O[C@H]1CN(C)Cc1ccc(C(=O)Nc2ccccc2N)cc1 | 16.7 µM
O=c1ccc2ccccc2c2ccccc12 | 6.04 µM
CN=c1scc(-c2ccccc2F)n1/N=C/c1ccc(O)c(O)c1O | 11.6 µM
Cc1ccc(S(=O)(=O)N(C)C[C@@H]2Oc3ccc(NC(=O)CCCCCC(=O)Nc4ccccc4N)cc3CC(=O)N([C@@H](C)CO)C[C@@H]2C)cc1 | 15.3 µM
COc1cccc(Sc2ccccc2/C=N/NC(N)=O)c1 | 2.23 µM
CC1OC(OC2CC(O)C3(CO)C4C(O)CC5(C)C(C6=CC(=O)OC6)CCC5(O)C4CCC3(O)C2)C(O)C(O)C1O (stereo not given) | 0.105 µM
COc1ccc(C2=Nn3c(nnc3-c3ccccc3OC)SC2)cc1OCC1CC1 | 4.88 µM
O=c1[nH]c(=O)n([C@H]2C[C@H](O)[C@@H](CO)O2)cc1C(F)(F)F | 4.17 µM
CN1C2CCC1/C(=C/c1ccccn1)C(=O)/C2=C\c1ccccn1 | 0.362 µM
O=C(NC[C@@H]1N[C@@H](CO)[C@H]1c1ccc(C2=CCCCC2)cc1)c1cccc(F)c1 | 11.1 µM

Compound | AC35
Cc1cc2c(C(C)C)c(O)c(O)c(C=O)c2c(O)c1-c1c(C)cc2c(C(C)C)c(O)c(O)c(C=O)c2c1O | 6.09 µM
O=C(Nc1ccccc1F)N1CCCCN2[C@H](CO)[C@H](c3ccc(/C=C/c4ccccc4)cc3)[C@H]2C1 | 3.64 µM
C[C@@H]1CN([C@@H](C)CO)C(=O)Cc2cc(NS(=O)(=O)c3cccs3)ccc2O[C@H]1CN(C)Cc1ccc(Cl)c(Cl)c1 | 12.5 µM
C[C@@H]1CN([C@@H](C)CO)C(=O)c2cc(NS(=O)(=O)c3ccc(Cl)cc3)ccc2O[C@@H]1CN(C)Cc1ccc(C(=O)Nc2ccccc2N)cc1 | 10.7 µM
N#C[C@H]1[C@H](c2ccc(-c3ccccc3F)cc2)[C@@H](CO)N1C(=O)Cc1ccccc1 | 10.2 µM
CCCCC[C@H](C)N1C[C@H](COCc2ccccc2)Oc2cc(N3CC[C@@H](N(C)C)C3)ccc2S1(=O)=O | 11.7 µM
Cc1ccc(C(C)C)c(OCc2ccc(C(=O)N/N=C/c3ccc(O)cc3O)cc2)c1 | 0.296 µM
Cc1ccc(S(=O)(=O)Nc2ccc3c(c2)C(=O)N([C@@H](C)CO)C[C@H](C)[C@@H](CN(C)Cc2ccc(C(F)(F)F)cc2)OCCCC[C@@H](C)O3)cc1 | 13.8 µM
C[C@@H]1O[C@@H](O[C@@H]2C=C3CC[C@@H]4C(CC[C@]5(C)[C@@H](c6ccc(=O)oc6)CC[C@]45O)[C@@]3(C)CC2)[C@H](O)[C@H](O)[C@H]1O (stereo not given in full) | 0.0233 µM
O=C(Nc1cccc(S(=O)(=O)N2CCCC2)c1)c1ccc(Cl)nc1 | 6.28 µM
Cc1cccc(/C=N/Nc2ccc3ccccc3n2)c1 | 18.9 µM
Nc1nc2cc3c(cc2cc1C(=O)NCCc1c[nH]c2ccccc12)OCO3 | 8.07 µM
CN(c1ccc(NC(=O)CCc2c[nH]c3ccccc23)cc1)c1ccccn1 | 9.08 µM
CCS(=O)(=O)N1Cc2ccccc2CC1C(=O)Nc1nnc(SCc2ccc(C#N)cc2)s1 (stereo not given) | 12.5 µM
CC(C)=CCC/C(C)=C/CN1C(=O)N(c2ccc(F)cc2)[C@H]2C[C@@H](c3ccccc3)[C@@H](C)[C@@H](C(=O)N3CCOCC3)C[C@H]21 | 5.03 µM
CN(Cc1cnc2nc(N)nc(N)c2n1)c1ccc(C(=O)N[C@@H](CCC(=O)O)C(=O)O)cc1 | 0.0191 µM and 0.018 µM
C[C@H]1CN([C@@H](C)CO)C(=O)c2cccc(NC(=O)c3ccc(-c4nccs4)cc3)c2O[C@@H]1CN(C)Cc1ccc(C(=O)Nc2ccccc2N)cc1 | 18.1 µM
CCOc1ccc(N=Nc2ccc(O)c3ncccc23)cc1 | 0.5 µM
C[C@@H]1CCCCO[C@H](CN(C)Cc2ccc(C(=O)Nc3ccccc3N)cc2)[C@@H](C)CN([C@H](C)CO)C(=O)c2cc(NS(=O)(=O)c3ccc(F)cc3)ccc2O1 | 14.1 µM
CC(=O)ON=C1C=CC(=C(C#N)c2ccccc2)C=C1 | 5.49 µM
C[C@@H]1CN([C@H](C)CO)C(=O)c2cc(C#CCN(C)C)cnc2O[C@H]1CN(C)Cc1ccc(-c2ccccc2)cc1 | 10.2 µM
CNC[C@H](CC1CCCCC1)NC[C@H](CO)NCCc1cccc(C(F)(F)F)c1 | 9.23 µM
CN(C)CC1CCC/C(=C\c2ccc(OC(=O)c3ccc(Cl)cc3)cc2)C1=O (stereo not given) | 0.771 µM

Compound | AC35
CN(C[C@H]1N[C@@H](CO)[C@@H]1c1ccc(C2=CCCC2)cc1)C(=O)c1cccc(F)c1 | 1.83 µM
CCc1ccc(/C=C2\SC(=S)N(CCCC(=O)N3CCN(C)CC3)C2=O)cc1 | 13.1 µM
COC(=O)C[C@@H]1CC[C@@H]2[C@@H](COc3ccc(NC(=O)Nc4cccc(Cl)c4)cc3C(=O)N2C)O1 | 10.3 µM
CC1=NN(c2ccccc2)C(=O)/C1=C\C=C\c1ccccc1 | 3.99 µM
O=c1oc2cc(O)ccc2s1 | 12.5 µM
c1ccc(Nc2nnc(-c3ccc4c(c3)OCO4)o2)cc1 | 11.9 µM
C[C@@H]1CN([C@@H](C)CO)C(=O)c2cc(N(C)C)ccc2O[C@H]1CN(C)Cc1ccc(C(=O)Nc2ccccc2N)cc1 | 13.2 µM
O=C(/C=C/c1cc(Br)ccc1O)c1ccco1 | 12.3 µM
C[C@@H]1CN([C@H](C)CO)C(=O)c2cc(NC(=O)CCCCCC(=O)Nc3ccccc3N)ccc2O[C@@H]1CN(C)Cc1ccc(Cl)c(Cl)c1 | 9.95 µM
CN(C)c1ccc(/C=N/Nc2nc3ccccc3o2)cc1 | 20.9 µM
O=C(C[C@H]1C[C@H]2c3cc(NS(=O)(=O)c4ccc(F)cc4)ccc3O[C@H]2[C@H](CO)O1)NCc1ccc(Oc2ccccc2)cc1 | 12.6 µM
Cc1ccc(C(=O)O/N=C(\N)c2ccccn2)cc1 | 17.7 µM
CC(=O)OC1CC(OC2C(O)CC(OC3C(O)CC(OC4CCC5(C)C(CCC6C5CCC5(C)C(C7=CC(=O)OC7)C(O)CC65O)C4)OC3C)OC2C)OC(C)C1OC1OC(CO)C(O)C(O)C1O (stereo not given) | 1.26 µM
CC(=O)Nc1cccc(-c2ccnc3c2CC(C)(C(=O)NCc2ccc(N(C)C)cc2)O3)c1 (stereo not given) | 13.3 µM
COc1ccc(-c2cn(-c3ccc(OC)cc3)c3[n+]2-c2ccccc2CC3)cc1 | 13.6 µM
Cc1ccc(/C=N/Nc2ccnc3cc(Cl)ccc23)c(C)c1 | 6.15 µM
NC(Cc1ccc(C(F)(F)F)cc1)c1csc(NC(=O)Nc2ccccc2Cc2ccccc2)n1 (stereo not given) | 12.8 µM
O=C(O)c1ccccc1C(=O)Nc1ccc(Oc2cccc3ccccc23)cc1 | 18.9 µM
O=C(Nc1ccc2c(c1)OCO2)N1C[C@@H]2N[C@H](C1)C2c1ccc(C=Cc2ccccc2)cc1 (stereo not given in full) | 4.6 µM
C[C@H](CO)N1C[C@H](C)[C@H](CN(C)Cc2ccc(Oc3ccccc3)cc2)Oc2ccc(NC(=O)CCCCCC(=O)Nc3ccccc3N)cc2CC1=O | 4.84 µM
CC(C)c1oc(=O)cc2c1[C@@H](O)[C@H]1OC(=O)[C@@]3(C)CC[C@@H](O)[C@@]2(C)C13 (stereo not given in full) | 19.3 µM
CCOc1ccc(N=C2C(=O)Nc3ccc(C)c(Br)c32)cc1 | 20.7 µM
C[C@@H]1CN([C@@H](C)CO)C(=O)c2cccc(NC(=O)Nc3cccc4ccccc34)c2O[C@@H]1CN(C)Cc1ccc(C(=O)Nc2ccccc2N)cc1 | 14.8 µM

Compound | AC35
Cc1noc(C)c1C(=O)Nc1sccc1C(N)=O | 14.3 µM
CC(=NNc1ccc2ccccc2n1)c1ccccn1 | 0.234 µM
COc1ccc(S(=O)(=O)N2CC[C@@H]3[C@@H](CO)Nc4ccc(-c5ccc(C#N)cc5)cc4[C@@H]32)cc1 | 8.87 µM
COC(=O)CC1(C(=O)OC)Oc2ccc(Br)cc2C(=O)N1c1cccc(Cl)c1Cl (stereo not given) | 14.2 µM
CCc1ccc(N2C=C(C(=O)OC)C(c3ccc(OC)cc3)C(C#N)=C2N)cc1 (stereo not given) | 12.5 µM
C[C@@H]1CN([C@@H](C)CO)C(=O)c2cc(NS(=O)(=O)c3ccc(F)cc3)ccc2O[C@@H]1CN(C)Cc1ccc(C(=O)Nc2ccccc2N)cc1 | 11.3 µM
COc1cc(-c2cnc3c(NC=O)cc(-c4cccc(NC(C)=O)c4)cn23)cc(OC)c1OC | 0.371 µM
CCCCCCCCCCCCCCCCn1cc[n+](C)c1 | 12.6 µM
C(=NNc1ccc2ccccc2n1)c1ccccn1 | 0.514 µM
COc1ccc(OC)c(/C=C/c2ccnc3ccccc23)c1 | 1.7 µM
CN(C)c1ncnc2c1ccn2C1OC(CO)C(O)C1O (stereo not given) | 2.94 µM
C[C@H]1CN([C@@H](C)CO)C(=O)c2cc(N(C)C)ccc2O[C@H]1CN(C)Cc1ccc(C(=O)Nc2ccccc2N)cc1 | 8.84 µM
C[C@]12CC[C@H](O)C[C@H]1CC[C@@H]1C2CC[C@]2(C)[C@@H](C3=CC(=O)OC3)[C@@H](O)C[C@]12O (stereo not given in full) | 5.27 µM
CC1(C(=O)NCc2ccco2)Cc2c(-c3cccc(C(N)=O)c3)ccnc2O1 (stereo not given) | 5.1 µM
C/C(=N\NC(=O)c1n[nH]c2c1CCC2)c1cccs1 | 19.3 µM
COc1cc2c(cc1OC)C(C)N(C(=O)c1cc(Cl)nc(Cl)c1)CC2 (stereo not given) | 12.1 µM
C=C(C(=O)c1ccccc1)C(C(=C)C(=O)c1ccccc1)c1ccc(OC)cc1 | 4.04 µM
Cc1c(N=Cc2cc(Br)cc(Br)c2O)cccc1C(=O)O | 20 µM
CCCCc1c(Cc2ccccc2)ncn1CCc1ccccc1OC | 15 µM
C[C@H](CO)N1C[C@H](C)[C@H](CN(C)Cc2ccccc2)Oc2ccc(NC(=O)CCCCCC(=O)Nc3ccccc3N)cc2CC1=O | 15.7 µM
C(=Cc1cnc2ccccc2n1)c1ccc2c(c1)OCO2 | 8.73 µM
